This note sets out measurements from patent publication US7700608B2, “Quinazoline derivatives and their use in the treatment of thrombocythemia” (Shire Holdings AG, priority 2004, dated 2010).

Molecules are shown by their SMILES.

One assay concerns Cord blood CD34+ cells. In words: TPO-induced megakaryocytic maturation/differentiation of cord blood CD34+ cells in culture. The assay is classed as cell-based. The conditions noted are these: for inhibition at 0.03 µM: 30 nM, CD34+ cells grown with TPO in plasma-containing medium, vs. control, read-out: inhibition of megakaryocytic maturation (percentage of GPIIIa positive cells); for Cell expansion % of control / GPIIIa expression median fluorescence % of control / GPIIIa positive cells % of control / Relative cell size % of control: 1.0 μM, 12 days, plasma-containing medium with TPO, mean ± SE, n = 4; for concentration giving maximal effect on megakaryocyte maturation / IC50: TPO-induced maturation, FIG. 1; for IC50: mean of 2-4 independent experiments, read-out: IC50 against megakaryocyte maturation. The procedure: Chemicals. Compound #1 was kept at room temperature. Stock solutions (10 mM) were made in DMSO, or PBS pH 5. 0, as indicated. Stock solutions were diluted in culture medium immediately before addition to cell suspensions.
(§1) Cell culture and drug regimes. Cord blood CD34+ cells were purchased from Biowhittacker USA or were freshly isolated by immunomagnetic selection using standard laboratory procedures. Cells were seeded in 24-well tissue culture plates at a density of 0.15×10^6 cells/ml and cultured for 12-14 days in Iscove's modified Dulbecco's medium containing 40 ng/ml TPO (as described in Mathur A, Hong Y. Martin J F, Erusalimsky J D (2001) Megakaryocytic differentiation is accompanied by a reduction in cell migratory potential. Br J Haematol 112:459) with anagrelide, Compound #1, or vehicle (DMSO).
(§2) Cell counting. Cell density was determined using a Sysmex CDA-500 Particle Analyzer.
(§3) Analysis of megakaryocytic differentiation. CD61 expression (a marker of megakaryocytic differentiation) was quantified by flow cytometry using an anti-GPIIIa antibody. Cell diameter was determined using a Sysmex CDA-500 Particle Analyzer.

Assay [1] deals with non-megakaryocytic cells (CD61-). In words: Growth of non-megakaryocytic (CD61-) cells in the TPO-stimulated CD34+ cultures. The conditions noted are these: 12-day cultures, FIG. 2. The assay is classed as cell-based. The procedure: as §1, §2, §3
To assess whether the inhibitory activities of anagrelide and Compound #1 in these cultures were selective for the megakaryocytic lineage, the effects of these compounds were evaluated on the growth of the non-megakaryocytic cells. In 12-day control cultures these cells (CD61-) represent 20-30% of the total population.

On to `O=C1CN2Cc3c(ccc(Cl)c3Cl)N=C2N1` [Anagrelide], for which, in the assay on Cord blood CD34+ cells, the inhibition at 0.03 µM came out at 28%, the “Cell expansion % of control” value is 48.0 ± 4.0 % of control, the “GPIIIa expression median fluorescence % of control” value was 51.3 ± 11.9 % of control and the “GPIIIa positive cells % of control” value is 41.9 ± 6.6 % of control. In the assay with Cord blood CD34+ cells, the “Relative cell size % of control” value was 80.4 ± 4.5 % of control, the “concentration giving maximal effect on megakaryocyte maturation” value is 1 µM and the IC50 was in the range of 110 to 130 nM. In addition, the “effect on growth of non-megakaryocytic cells (selectivity for megakaryocytic lineage)” value in assay [1] is given as “neither anagrelide nor Compound #1 inhibited the growth of non-megakaryocytic cells”.

Turning to `O=CC(=O)NC1=Nc2ccc(Cl)c(Cl)c2CN1` [Compound #1, N-(5,6-dichloro-3,4-dihydroquinazolin-2-yl)-2-oxoacetamide], in the assay with Cord blood CD34+ cells, the inhibition at 0.03 µM came to 20%, the “Cell expansion % of control” value was 45.8 ± 3.9 % of control, the “GPIIIa expression median fluorescence % of control” value is 54.4 ± 14.7 % of control and the “GPIIIa positive cells % of control” value is 34.5 ± 4.4 % of control. In the assay on Cord blood CD34+ cells, the “Relative cell size % of control” value was 78.7 ± 5.3 % of control, the “concentration giving maximal effect on megakaryocyte maturation” value was found to be 1 µM and the IC50 lay within 110 to 130 nM. The “effect on growth of non-megakaryocytic cells (selectivity for megakaryocytic lineage)” value in assay [1] is “neither anagrelide nor Compound #1 inhibited the growth of non-megakaryocytic cells”.
